Usually Emax stands for the maximal effect, on the per cent scale that the assay sets.

The values that follow come from patent US11319321B2, “[1,2,4]triazolo[1,5-a]pyrimidine compounds as PDE2 inhibitors” (Janssen Pharmaceutica NV, priority 2016, dated 2022).

The structures appear in SMILES notation.

Sequence of hPDE10A2 (Q9Y233 267-1055): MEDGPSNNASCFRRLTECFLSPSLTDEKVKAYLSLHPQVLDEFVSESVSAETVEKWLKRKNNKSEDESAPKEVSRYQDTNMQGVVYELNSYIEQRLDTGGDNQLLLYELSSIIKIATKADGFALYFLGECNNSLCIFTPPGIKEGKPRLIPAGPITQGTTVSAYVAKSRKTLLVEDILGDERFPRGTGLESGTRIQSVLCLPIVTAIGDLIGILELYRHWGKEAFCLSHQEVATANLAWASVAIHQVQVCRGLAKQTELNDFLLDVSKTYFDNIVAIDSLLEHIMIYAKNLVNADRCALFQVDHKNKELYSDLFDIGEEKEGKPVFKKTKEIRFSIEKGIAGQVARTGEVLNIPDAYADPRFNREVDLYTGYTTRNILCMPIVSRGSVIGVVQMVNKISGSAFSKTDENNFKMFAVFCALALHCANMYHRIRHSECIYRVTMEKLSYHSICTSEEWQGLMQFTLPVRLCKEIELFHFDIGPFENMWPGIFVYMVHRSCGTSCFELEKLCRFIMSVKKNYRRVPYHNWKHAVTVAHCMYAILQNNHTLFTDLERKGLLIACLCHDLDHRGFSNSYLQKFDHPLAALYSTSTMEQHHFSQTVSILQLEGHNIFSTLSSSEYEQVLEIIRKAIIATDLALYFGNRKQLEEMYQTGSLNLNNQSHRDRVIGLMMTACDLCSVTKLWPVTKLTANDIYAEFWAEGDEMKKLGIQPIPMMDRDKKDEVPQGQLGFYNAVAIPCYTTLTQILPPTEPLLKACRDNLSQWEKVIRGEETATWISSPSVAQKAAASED

In the first assay the target is T1, Human recombinant PDE2A (hPDE2A) (Homo sapiens, UniProt O00408).
T1 construct: made in house; host or cells: Sf9 insect cells (baculovirus)
T1 sequence (O00408 whole entry): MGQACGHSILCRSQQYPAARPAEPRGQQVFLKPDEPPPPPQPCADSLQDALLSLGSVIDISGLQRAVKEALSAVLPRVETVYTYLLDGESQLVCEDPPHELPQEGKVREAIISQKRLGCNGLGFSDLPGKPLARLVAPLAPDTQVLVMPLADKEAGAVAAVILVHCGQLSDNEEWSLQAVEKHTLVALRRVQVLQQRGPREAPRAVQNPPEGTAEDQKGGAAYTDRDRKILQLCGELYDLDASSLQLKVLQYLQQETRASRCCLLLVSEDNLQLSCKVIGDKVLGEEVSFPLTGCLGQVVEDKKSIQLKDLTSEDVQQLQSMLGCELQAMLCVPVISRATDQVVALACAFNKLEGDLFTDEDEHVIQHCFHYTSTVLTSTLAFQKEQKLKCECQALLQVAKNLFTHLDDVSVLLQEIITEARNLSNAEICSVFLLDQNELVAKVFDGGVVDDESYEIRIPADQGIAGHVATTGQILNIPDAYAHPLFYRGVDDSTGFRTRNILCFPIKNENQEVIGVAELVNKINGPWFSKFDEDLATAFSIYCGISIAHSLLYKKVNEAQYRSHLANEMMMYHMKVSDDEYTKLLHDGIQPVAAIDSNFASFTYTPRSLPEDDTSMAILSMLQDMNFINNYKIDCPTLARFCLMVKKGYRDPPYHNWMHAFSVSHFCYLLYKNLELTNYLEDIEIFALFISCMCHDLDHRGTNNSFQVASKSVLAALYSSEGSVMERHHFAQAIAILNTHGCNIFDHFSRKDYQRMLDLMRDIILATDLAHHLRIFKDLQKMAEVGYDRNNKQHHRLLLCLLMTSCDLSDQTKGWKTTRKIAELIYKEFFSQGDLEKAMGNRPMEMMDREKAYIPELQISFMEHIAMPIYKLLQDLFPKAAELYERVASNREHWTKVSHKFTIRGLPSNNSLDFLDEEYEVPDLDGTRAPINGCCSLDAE
As to the kind of experiment: In vitro assay PDE2A (SPA, 3H-cGMP). It is filed as biochemical. The settings on record: 10 μM cGMP substrate. The protocol: Human recombinant PDE2A (hPDE2A) was expressed in Sf9 cells using a recombinant rPDE10A baculovirus construct. Cells were harvested after 48 h of infection and the hPDE2A protein was purified by metal chelate chromatography on Ni-sepharose 6FF. Tested compounds were dissolved and diluted in 100% DMSO to a concentration 100 fold of the final concentration in the assay. Compound dilutions (0.4 μl) were added in 384 well plates to 20 μl of incubation buffer (50 mM Tris pH 7.8, 8.3 mM MgCl2, 1.7 mM EGTA). 10 μl of hPDE2A enzyme in incubation buffer was added and the reaction was started by addition of 10 μl substrate to a final concentration of 10 μM cGMP and 0.01 μCi ^3H-cGMP. The reaction was incubated for 45 minutes at room temperature. […] After sedimentation of the beads during 30 minutes the radioactivity was measured in a Perkin Elmer Topcount scintillation counter and results were expressed as cpm. For blanc values the enzyme was omitted from the reaction and replaced by incubation buffer. Control values were obtained by addition of a final concentration of 1% DMSO instead of compound.
With `COc1ccc(CN2CC[C@@H](C)[C@H](c3cc(C(F)F)nc4ncnn34)C2)c(OC)c1.Cl` [Compound 45], the Emax is 49%.
Same read-out and setting: the figure for `COc1ccc(CN2CC[C@H](C)[C@@H](c3cc(C(F)F)nc4ncnn34)C2)c(OC)c1.Cl` [Compound 46] is 9%; for `COc1ccc(CN2CC[C@@H](C)[C@@H](c3cc(C(F)F)nc4ncnn34)C2)c(OC)c1` [Compound 47] it is 25%; for `C[C@@H]1CCN(Cc2nn(C)c3ccccc23)C[C@H]1c1cc(C(F)F)nc2ncnn12` [Compound 48] it is 96%.
Same read-out and setting: as for `Cc1cc(CN2CCC(C)C(F)(c3cc(C(F)F)nc4ncnn34)C2)cc(C)n1` (stereo not drawn) [Compound 51], the figure is 91%; as for `Cc1nn(C)cc1CN1CC[C@@H](C)[C@H](c2cc(C(F)F)nc3ncnn23)C1.Cl` [Compound 52], 31%.
Same read-out and setting: as for `C[C@H]1CCN(Cc2cc3ccccc3o2)C[C@@H]1c1cc(C(F)F)nc2ncnn12.Cl` [Compound 55], the figure is 25%.

Staying with this assay, now noted: hPDE2A pIC50, 10 μM cGMP substrate.
`COc1ccc(CN2CC[C@@H](C)[C@H](c3cc(C(F)F)nc4ncnn34)C2)c(OC)c1.Cl` [Compound 45]: the IC50 is 0.955 µM.
Same read-out and setting: the figure for `COc1ccc(CN2CC[C@H](C)[C@@H](c3cc(C(F)F)nc4ncnn34)C2)c(OC)c1.Cl` [Compound 46] is 7.24 µM; for `COc1ccc(CN2CC[C@@H](C)[C@@H](c3cc(C(F)F)nc4ncnn34)C2)c(OC)c1` [Compound 47] it is ~3.47 µM; for `C[C@@H]1CCN(Cc2nn(C)c3ccccc23)C[C@H]1c1cc(C(F)F)nc2ncnn12` [Compound 48] it is 0.977 µM.
Take `Cc1cc(CN2CCC(C)C(F)(c3cc(C(F)F)nc4ncnn34)C2)cc(C)n1` (stereo not drawn) [Compound 51]: the IC50 was 2.95 µM.
Still for that read-out and setting: as for `Cc1nn(C)cc1CN1CC[C@@H](C)[C@H](c2cc(C(F)F)nc3ncnn23)C1.Cl` [Compound 52], the figure is ~2.34 µM; as for `C[C@H]1CCN(Cc2cc3ccccc3o2)C[C@@H]1c1cc(C(F)F)nc2ncnn12.Cl` [Compound 55], 2.24 µM.

The test system of another assay is hPDE3B. As to the kind of experiment: In vitro assay PDE3 (SPA, 3H-cAMP). The format is biochemical, human. The settings on record: 0.4 μM cAMP substrate.
`COc1ccc(CN2CC[C@@H](C)[C@H](c3cc(C(F)F)nc4ncnn34)C2)c(OC)c1.Cl` [Compound 45]: the “hPDE3B pIC50” value is <5.
Same read-out and setting: as for `COc1ccc(CN2CC[C@H](C)[C@@H](c3cc(C(F)F)nc4ncnn34)C2)c(OC)c1.Cl` [Compound 46], the figure is <5.
As to `COc1ccc(CN2CC[C@@H](C)[C@@H](c3cc(C(F)F)nc4ncnn34)C2)c(OC)c1` [Compound 47], the “hPDE3B pIC50” value is on record as <5.
Take `C[C@@H]1CCN(Cc2nn(C)c3ccccc23)C[C@H]1c1cc(C(F)F)nc2ncnn12` [Compound 48]: the “hPDE3B pIC50” value is recorded as <5.
On the same count and under the same terms, as for `Cc1cc(CN2CCC(C)C(F)(c3cc(C(F)F)nc4ncnn34)C2)cc(C)n1` (stereo not drawn) [Compound 51], the figure is 5.11; as for `Cc1nn(C)cc1CN1CC[C@@H](C)[C@H](c2cc(C(F)F)nc3ncnn23)C1.Cl` [Compound 52], <5.
For `C[C@H]1CCN(Cc2cc3ccccc3o2)C[C@@H]1c1cc(C(F)F)nc2ncnn12.Cl` [Compound 55], the “hPDE3B pIC50” value is <5.

The assay is the same for the next values; noted with them: 0.4 μM cAMP substrate; in % (unit assumed).
In the case of `COc1ccc(CN2CC[C@@H](C)[C@H](c3cc(C(F)F)nc4ncnn34)C2)c(OC)c1.Cl` [Compound 45], the “hPDE3B Emax” value was found to be 6.
On the same count and under the same terms, as for `COc1ccc(CN2CC[C@H](C)[C@@H](c3cc(C(F)F)nc4ncnn34)C2)c(OC)c1.Cl` [Compound 46], the figure is 17.
The same measure, in the same setting: the figure for `COc1ccc(CN2CC[C@@H](C)[C@@H](c3cc(C(F)F)nc4ncnn34)C2)c(OC)c1` [Compound 47] is 27; for `C[C@@H]1CCN(Cc2nn(C)c3ccccc23)C[C@H]1c1cc(C(F)F)nc2ncnn12` [Compound 48] it is 23.
The same measure, in the same setting: as for `Cc1cc(CN2CCC(C)C(F)(c3cc(C(F)F)nc4ncnn34)C2)cc(C)n1` (stereo not drawn) [Compound 51], the figure is 67; as for `Cc1nn(C)cc1CN1CC[C@@H](C)[C@H](c2cc(C(F)F)nc3ncnn23)C1.Cl` [Compound 52], 1.
Take `C[C@H]1CCN(Cc2cc3ccccc3o2)C[C@@H]1c1cc(C(F)F)nc2ncnn12.Cl` [Compound 55]: the “hPDE3B Emax” value worked out at 40.

The next assay deals with hPDE10A2 (Homo sapiens, UniProt Q9Y233). Briefly: biochemical. The settings on record: human clone; 60 nM cAMP substrate; read-out: hPDE10A2 or rPDE10A2 pIC50 (converted). The method, then:
Rat recombinant PDE10A (rPDE10A2) was expressed in Sf9 cells using a recombinant rPDE10A baculovirus construct. Cells were harvested after 48 h of infection and the rPDE10A protein was purified by metal chelate chromatography on Ni-sepharose 6FF. Tested compounds were dissolved and diluted in 100% DMSO to a concentration 100 fold of the final concentration in the assay. Human recombinant PDE10A ([…]) was expressed in Sf9 cells using a recombinant hPDE10A baculovirus that was made and amplified in house. Cells were harvested after 72 h of infection and the hPDE10A protein was purified by metal chelate chromatography on Ni-sepharose. Compound dilutions (0.4 μl) were added in 384 well plates to 20 μl of incubation buffer (50 mM Tris pH 7.8, 8.3 mM MgCl2, 1.7 mM EGTA). 10 μl of rPDE10A or hPDE10A enzyme in incubation buffer was added and the reaction was started by addition of 10 μl substrate to a final concentration of 60 nM cAMP and […] ^3H-cAMP. The reaction was incubated for 60 minutes at room temperature. After incubation, the reaction was stopped with 20 μl of stop solution consisting of 17.8 mg/ml PDE SPA (scintillation proximity assay) beads. After sedimentation of the beads during 30 minutes the radioactivity was measured in a Perkin Elmer Topcount scintillation counter and results were expressed as cpm. For blanc values the enzyme was omitted from the reaction and replaced by incubation buffer. Control values were obtained by addition of a final concentration of 1% DMSO instead of compound. A best fit curve is fitted by a minimum sum of squares method to the plot of % of control value substracted with blanc value versus compound concentration and the half maximal inhibitory concentration (IC50) value is derived from this curve.
`COc1ccc(CN2CC[C@@H](C)[C@H](c3cc(C(F)F)nc4ncnn34)C2)c(OC)c1.Cl` [Compound 45]: the IC50 was > 10 µM.
Same read-out and setting: as for `COc1ccc(CN2CC[C@H](C)[C@@H](c3cc(C(F)F)nc4ncnn34)C2)c(OC)c1.Cl` [Compound 46], the figure is > 10 µM; as for `COc1ccc(CN2CC[C@@H](C)[C@@H](c3cc(C(F)F)nc4ncnn34)C2)c(OC)c1` [Compound 47], > 10 µM.
Consider `C[C@@H]1CCN(Cc2nn(C)c3ccccc23)C[C@H]1c1cc(C(F)F)nc2ncnn12` [Compound 48], for which the IC50 is > 10 µM.
Still for that read-out and setting: as for `Cc1cc(CN2CCC(C)C(F)(c3cc(C(F)F)nc4ncnn34)C2)cc(C)n1` (stereo not drawn) [Compound 51], the figure is > 10 µM; as for `Cc1nn(C)cc1CN1CC[C@@H](C)[C@H](c2cc(C(F)F)nc3ncnn23)C1.Cl` [Compound 52], > 10 µM; as for `C[C@H]1CCN(Cc2cc3ccccc3o2)C[C@@H]1c1cc(C(F)F)nc2ncnn12.Cl` [Compound 55], > 10 µM.

Staying with this assay, now noted: read-out: hPDE10A2 or rPDE10A2 Emax, human clone; 60 nM cAMP substrate.
As for `COc1ccc(CN2CC[C@@H](C)[C@H](c3cc(C(F)F)nc4ncnn34)C2)c(OC)c1.Cl` [Compound 45], the Emax is 37%.
Same read-out and setting: as for `COc1ccc(CN2CC[C@H](C)[C@@H](c3cc(C(F)F)nc4ncnn34)C2)c(OC)c1.Cl` [Compound 46], the figure is -6%.
`COc1ccc(CN2CC[C@@H](C)[C@@H](c3cc(C(F)F)nc4ncnn34)C2)c(OC)c1` [Compound 47]: the Emax was 37%.
The same measure, in the same setting: the figure for `C[C@@H]1CCN(Cc2nn(C)c3ccccc23)C[C@H]1c1cc(C(F)F)nc2ncnn12` [Compound 48] is 37%; for `Cc1cc(CN2CCC(C)C(F)(c3cc(C(F)F)nc4ncnn34)C2)cc(C)n1` (stereo not drawn) [Compound 51] it is 28%; for `Cc1nn(C)cc1CN1CC[C@@H](C)[C@H](c2cc(C(F)F)nc3ncnn23)C1.Cl` [Compound 52] it is 9%.
Still for that read-out and setting: the figure for `C[C@H]1CCN(Cc2cc3ccccc3o2)C[C@@H]1c1cc(C(F)F)nc2ncnn12.Cl` [Compound 55] is 12%.
